Assay results published in patent publication US9629822B2, “Flavonoid based antiviral targets” (UNIVERSITY OF CENTRAL FLORIDA RESEARCH FOUNDATION, INC., priority 2012, dated 2017).
Read-outs that look alike come from different tables or passages of the source.

How the values were obtained:
[1] = target: T1, US28 receptor (Human cytomegalovirus, UniProt P69332); test: PathDetect trans Elk1 luciferase reporter gene assay in US28-transfected 293T HEK cells; format: cell-based, Human Cytomegalovirus (HCMV); details: for EC50: 293T HEK cells transiently expressing US28, Elk1 reporter; for Efficacy(%): maximum intrinsic activity from dose-response curve; for Efficacy(%) / Emax: negative = inverse agonism; for Emax: read-out: Efficacy(%), maximum intrinsic activity from dose-response curve; for type of activity on the US28 receptor (agonist / inverse agonist / none), in words: Elk1 reporter, US28-transfected HEK cells
T1 construct: expressed in transfected cells; host or cells: HEK 293T cells, transiently transfected
Source text: Having generated a homologous series of chalcones and flavones, their ability to interact with the US28 receptor in human embryonic kidney (HEK) cells was investigated using an Elk-1 gene reporter assay (FIG. 2). HEK cells were transfected with either an empty vector (i.e., mock cells) or with a vector carrying US 28. These matched HEK cells provided a means to evaluate off-target effects as well as innate drug toxicity. As many of the flavonoid drugs were not water-soluble, all drug stock solutions were made in 100% dimethylsulfoxide (DMSO). The final DMSO concentration for each cell-based experiment, however, was 1% DMSO. To account for the presence of DMSO, 1% DMSO controls were run in parallel. […] values of the homologous series were also determined in Chinese hamster ovary (CHO) cells in order to assess the relative toxicities of each member of the series in a different cell line (see Table 1).
Interaction with the US28 receptor was measured by a decrease in luminescence using a firefly (Photinus pyralis) luciferase-based PathDetect Elk1 gene reporter assay (FIG. 2).^23,24 This assay assessed the modulation of US28-mediated activation of mitogen-activated protein kinase (MAPK) signaling pathways (results are shown in Table 1). […] Such compounds which reduce MAPK signaling will have direct utility in the treatment of proliferative disorders including but not limited cancer.
After transfection the US28 is expressed and activates MAPK. The MAPK phosphorylates the activator domain of the GAL4dbd/Elk1 fusion protein, and causes its dimerization. The dimer then binds to the GAL4 UAS region of the reporter gene and allows for luciferase transcription. The luciferase mRNA is then translated and the luciferase protein is detected via luminescence by the use of the Bright-Glo reagent.
(§1) The efficacy of each compound on the US28 receptor was investigated in luciferase based reporter gene assay PathDetect trans Elk1 (Agilent, Stratagene)^23 as described previously.^13 Briefly, the human embryonic kidney (HEK) 293T cells were transiently-transfected with 0.1 μg Elk1, 5 μg Luc, and 5 μg of US28 vector or empty pcDNA3 vector (mock cells). Five hours after transfection, the cells were washed with DMEM containing 1% FBS, harvested, seeded in a white half-area 96-well plate (20,000 cells/well) and incubated with the indicated concentrations of test compounds. The incubation buffer consisted of DMEM, 1% FBS, 2 mM L-glutamine, 1% penicillin-streptomycin and 1% DMSO. The cells were incubated at 37° C. in the humid atmosphere with 5% CO2 for an additional 20-24 hours. The luciferase substrate BrightGlo (Promega) was used according to the manufacturer's instruction. The luminescence intensity was acquired using microplate reader Victor3V (Perkin-Elmer). The basal luminescence of mock transfected cells was approximately 500 RLU and the basal luminescence of US28-transfected cells was 4-5-fold higher (2000-2500 RLU). As the inhibitors gave differential responses in terms of their ability to reduce US 28 mediated signaling, their relative EC50 values were determined by dosing the US-28 transfected HEK cells with increasing concentrations of each compound. In this case, the EC50 value is the concentration of the compound needed to provoke a response halfway between the compound's maximal response (change in luminescence) and the no-compound control in the same US-28 transfected cell line. A plot of relative luminescence versus log of the compound concentration provided a dose-response curve from which the % efficacy was derived via non-linear regression methods using the algorithms in PRISM 5.0 (GraphPad Software, San Diego, Calif.).

[2] = test system: HIV-1 BaL; test: Anti-HIV assay (luciferase, HIV-1 BaL infection); format: cell-based
Protocol: Assays were performed below in accordance with the procedures set forth in The Journal of Immunology, 2006, 176, pp. 6900-905; AIDS Research and Human Retroviruses, 2004, 20:11, pp. 1157-1665.^32,33 Cells were treated with 2 ng/mL p24 of HIV-1 BaL administered; MOI approx 0.02 (see refs 32, 33). Cells were treated with 2 ng/mL p24 of HIV-1 BaL administered; MOI approx 0.02 (see refs 32, 33).

[3] = test system: CHO cells; test: CHO cell toxicity, MTS assay, 48 h; format: cell-based, Chinese hamster; details: Cricetulus griseus, CHO, 37° C., MTS reagent, read-out: CHO 48 h IC50 value
Protocol: In each case, the chalcone system 8 was more toxic than the corresponding ring-closed system, 9.
The CHO assay was conducted to assess the general toxicity of each flavonoid drug. Briefly, cell growth was assayed in sterile 96-well microtiter plates (Costar 3599, Corning, N.Y., USA) in the presence of each drug. Experiments were conducted in triplicate. CHO cells were plated at 10,000 cells/mL. Drug solutions were prepared in 100% DMSO and dosed so that the final DMSO concentration was <1%. For example, 1 μL of drug solution was added to the CHO cells plated in each well in 100 μL of media. Drug additions occurred after an initial overnight incubation of CHO cells in each well. After drug was added, the cells were incubated in 5% CO2 for 48 h at 37° C. The MTS reagent (Promega Cell Titer 96 Aqueous non-radioactive cell proliferation reagent) was added (20 μL) and the CHO cells were incubated for an additional 4h and then absorbance at 490 nm was measured on a BioTek Synergy MX plate reader. […] IC50 values were determined from the corresponding plot of relative absorbance at 490 nm vs drug concentration.

[4] = TZMbI assay for cell safety (cell viability and growth, CytoTox Glo); details: human, TZMbI cells, read-out: % decrease in viability compared to 0.1% DMSO vehicle based on viable cell luminescence
Protocol: Assays were performed below in accordance with the procedures set forth in The Journal of Immunology, 2006, 176, pp. 6900-905; AIDS Research and Human Retroviruses, 2004, 20:11, pp. 1157-1665.^32,33 TZMbI assays for cell safety were performed to identify potential anti-viral compounds. TZMbI assays for cell safety were performed to identify potential anti-viral compounds per the methods.

[5] = test system: mock transfected 293T HEK cells; test: PathDetect Elk1 luminescence in mock transfected (empty pcDNA3 vector) 293T HEK cells, off-target effect; format: cell-based, human; details: 10 μM vs 1% DMSO control, Equation 1; for activation at 10 µM: Homo sapiens, read-out: Effect(%) on mock cells with each drug at 10 μM
Protocol: As a control, the empty pcDNA3 plasmid vector and the components of PathDetect system were also used for mock transfection of 293T HEK cells. Controls containing 1% DMSO were run in parallel. The relative luminescence results found with mock transfected 293T HEK cells treated with 10 μM drug and the untreated 1% DMSO control were compared via the following Equation 1. % Effect on mock cells=(100%×(mock cell luminescence/DMSO control luminescence))−100% Equation (1)
This equation was derived in order to assess the net effect each compound had on non-US28 containing HEK cells transfected via the same protocol. These control experiments were critical as they provided a method to address off target effects such as compound toxicity, which could give rise to false positives in the PathDetect assay.
Compounds, which had no off-target effects, gave nearly identical luminescence values in both the mock cells and the 1% DMSO control (i.e., a mock cell luminescence/DMSO control luminescence ratio of 1) and a net effect of 0% via Equation 1 (e.g., 9j: 0% in Table 1). In contrast, compounds that were stimulatory to the treated HEK cells gave higher mock cell luminescence than the DMSO control, a ratio >1, and a net positive value in Equation 1 for the % effect on mock cells (e.g., 8f: 290%). On the other hand, compounds that were intrinsically toxic gave lower luminescence in the treated mock cells than the DMSO control, a ratio below 1, and a net negative value for the % effect on mock cells (e.g., 8d: ˜42%).
as §1

[6] = EC50 (μM), NE = no effect when tested at 10 μM of compound
[7] = 10 μM, Experiment 1B, 2 ng/mL p24 HIV-1 BaL
[8] = Human immunodeficiency virus 1, BAL, 10 μM, Experiment 1B, 2 ng/mL p24 HIV-1 BaL
[9] = NE = no effect when tested at 10 μM of compound

T1 sequence (P69332 whole entry): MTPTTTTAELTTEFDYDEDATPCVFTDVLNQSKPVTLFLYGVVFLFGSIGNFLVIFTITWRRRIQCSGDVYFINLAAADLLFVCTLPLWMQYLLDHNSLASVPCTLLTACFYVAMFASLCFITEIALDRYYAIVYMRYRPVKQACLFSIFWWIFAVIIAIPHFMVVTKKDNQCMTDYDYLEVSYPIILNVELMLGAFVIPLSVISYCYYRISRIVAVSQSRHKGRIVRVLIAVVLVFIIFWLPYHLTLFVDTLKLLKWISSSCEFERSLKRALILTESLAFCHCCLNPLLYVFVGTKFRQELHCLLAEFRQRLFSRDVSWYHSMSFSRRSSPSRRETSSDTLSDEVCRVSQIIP

SMILES | EC50 [1, 6] [µM] | Efficacy(%) [1] [%] | EC50 ([1]; pEC50 ± SEM) [µM] | Emax [1] [%] | RLU (relative luciferase units) [2, 7] [RLU] | inhibition at 10 µM [2, 8] [%] | IC50 [3] [µM] | melting point [°C] | cytotoxicity at 10 μM ([4]; Experiment 1A) [%] | activation at 10 µM [5] [%] | type of activity on the US28 receptor (agonist / inverse agonist / none), in words [1] | EC50 [1, 9] [µM] | also measured
COc1cc(Br)cc(/C=C/C(=O)c2ccccc2O)c1OC [Compound 8d, (E)-3-(5-bromo-2,3-dimethoxyphenyl)-1-(2-hydroxyphenyl)prop-2-en-1-one] | 6.7 | ~52 | 6.61 | ~52 | 134.6 | 85.8 | 7.2 ± 0.4 | 122 to 124 | 72.9 |  |  |  | 
COc1ccc(Br)cc1/C=C/C(=O)c1c(O)cccc1OC [Compound 8f, (E)-3-(5-bromo-2-methoxyphenyl)-1-(2-hydroxy-6-methoxyphenyl)prop-2-en-1-one] | 6 | ~95 |  | ~95 | 45.9 | 95.1 | 6.1 ± 0.8 |  | 91.3 | 290 |  |  | Effect(%) on mock cells with each drug at 10 μM [5]: 290%
COc1ccc(Cl)cc1/C=C/C(=O)c1ccccc1O [Compound 8h, (E)-3-(5-chloro-2-methoxyphenyl)-1-(2-hydroxyphenyl)prop-2-en-1-one] | 7.8 | ~58 |  | ~58 | 33.8 | 96.4 | 8.4 ± 0.6 | 81 to 82 | 98.9 |  |  |  | 
CCOc1ccc(Br)cc1-c1oc2ccccc2c(=O)c1O [Compound 9c, 2-(5-Bromo-2-ethoxyphenyl)-3-hydroxy-4H-chromen-4-one] | 0.8 |  | 0.832 |  | 727.6 | 22.3 | 13.5 ± 1.3 | 149 to 155 | -8.9 |  | inhibited US28 activity |  | RLU (relative luciferase units) ([2]; 2.5 μM, Experiment 2B): 30.81 RLU; RLU (relative luciferase units) ([2]; 5 μM, Experiment 2B): 33.63 RLU; RLU (relative luciferase units) ([2]; 10 μM, Experiment 2B): 49.29 RLU; RLU (relative luciferase units) ([2]; 20 μM, Experiment 2B): 69.09 RLU; RLU (relative luciferase units) ([2]; 40 μM, Experiment 2B): 88.45 RLU; inhibition at 2.5 µM ([2]; Human immunodeficiency virus 1, BAL, 2.5 μM, Experiment 2B): -6.23%; inhibition at 5 µM ([2]; Human immunodeficiency virus 1, BAL, 5 μM, Experiment 2B): -0.19%; inhibition at 10 µM ([2]; Human immunodeficiency virus 1, BAL, 10 μM, Experiment 2B): 0.1%; inhibition at 20 µM ([2]; Human immunodeficiency virus 1, BAL, 20 μM, Experiment 2B): 14.8%; inhibition at 40 µM ([2]; Human immunodeficiency virus 1, BAL, 40 μM, Experiment 2B): 64.2%; cytotoxicity at 2.5 μM ([4]; 2.5 μM, Experiment 2A): -6.23%; cytotoxicity at 5 μM ([4]; 5 μM, Experiment 2A): -0.19%; cytotoxicity at 10 μM ([4]; Experiment 2A): 0.1%; cytotoxicity at 20 μM ([4]; 20 μM, Experiment 2A): 14.8%; cytotoxicity at 40 μM ([4]; 40 μM, Experiment 2A): 64.2%
COc1ccccc1-c1cc(=O)c2ccccc2o1 [Compound 11c, 2-(2-Methoxyphenyl)-4H-chromen-4-one] | > 10 |  |  |  | 235.6 | 74.8 | 64.8 ± 8.1 |  | 39.5 | 3 | inactive ligand | > 10 | 
COc1ccc(Br)cc1C1CC(=O)c2ccccc2O1 (centres unmarked) [Compound 13b, 2-(5-Bromo-2-methoxyphenyl)chroman-4-one] | > 10 |  |  |  | 884.5 | 2.8 | 67.9 ± 9.3 |  | -9.1 | -5 | did not have any significant effect | > 10 | 
